Experimental data published in ChEMBL document CHEMBL1201862, “PubChem BioAssay data set” (2004).
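Method: 48-hour compound exposure of cells in 96-well plates, five concentrations, linear interpolation of endpoints. GI50 = concentration required for 50% inhibition of growth.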 Activity calls are given as the source filed them. Rule as the data show it: active = GI50 up to about 1.1 µM and inactive = higher.

Key:
Assay in all cases: growth of human tumour cells (NCI), 48 h
MOLT-4 = tested on: MOLT-4
CCRF-CEM = tested on: CCRF-CEM
HT-29 = tested on: HT-29
SNB-19 = tested on: SNB-19
HCT-116 = tested on: HCT-116
786-0 = tested on: 786-0
DMS-273 = tested on: DMS-273
M14 = tested on: M14
KM-20L2 = tested on: KM-20L2
NCI-H23 = tested on: NCI-H23
KM12 = tested on: KM12
COLO 205 = tested on: COLO 205
RXF 631 = tested on: RXF 631
SK-OV-3 = tested on: SK-OV-3
CAKI-1 = tested on: CAKI-1
HCC 2998 = tested on: HCC 2998
SN12C = tested on: SN12C
SF-295 = tested on: SF-295
M19-MEL = tested on: M19-MEL
UACC-257 = tested on: UACC-257
K562 = tested on: K562
TK-10 = tested on: TK-10
HL-60 = tested on: HL-60
RXF 393 = tested on: RXF 393
NCI-H226 = tested on: NCI-H226
HCT-15 = tested on: HCT-15
OVCAR-4 = tested on: OVCAR-4
IGROV-1 = tested on: IGROV-1
SK-MEL-28 = tested on: SK-MEL-28
ACHN = tested on: ACHN
A549 = tested on: A549
NCI-H522 = tested on: NCI-H522
EKVX = tested on: EKVX
OVCAR-5 = tested on: OVCAR-5
SF-268 = tested on: SF-268
Malme-3M = tested on: Malme-3M
NCI-H460 = tested on: NCI-H460
SNB-78 = tested on: SNB-78
SW-620 = tested on: SW-620
LOX IMVI = tested on: LOX IMVI
SF-539 = tested on: SF-539
LXFL 529 = tested on: LXFL 529
SK-MEL-5 = tested on: SK-MEL-5
HOP-62 = tested on: HOP-62
XF498 = tested on: XF498
UO-31 = tested on: UO-31
SNB-75 = tested on: SNB-75
UACC-62 = tested on: UACC-62
U-251 = tested on: U-251
OVCAR-3 = tested on: OVCAR-3
HOP-18 = tested on: HOP-18
SK-MEL-2 = tested on: SK-MEL-2
DLD-1 = tested on: DLD-1
A498 = tested on: A498
OVCAR-8 = tested on: OVCAR-8
HOP-92 = tested on: HOP-92
DMS-114 = tested on: DMS-114
SR = tested on: SR
RPMI-8226 = tested on: RPMI-8226

CCOc1cccc2[s+]snc12
GI50 (MOLT-4): 78.2 µM (inactive)
GI50 (CCRF-CEM): 62.8 µM (inactive)
GI50 (HT-29): > 100 µM (inactive)
GI50 (SNB-19): > 100 µM (inactive)
GI50 (HCT-116): > 100 µM (inactive)
GI50 (786-0): > 100 µM (inactive)
GI50 (DMS-273): > 100 µM (inactive)
GI50 (M14): > 100 µM (inactive)
GI50 (KM-20L2): > 100 µM (inactive)
GI50 (NCI-H23): > 10 µM (inactive)
GI50 (KM12): > 100 µM (inactive)
GI50 (COLO 205): > 100 µM (inactive)
GI50 (RXF 631): > 100 µM (inactive)
GI50 (SK-OV-3): > 100 µM (inactive)
GI50 (CAKI-1): > 100 µM (inactive)
GI50 (HCC 2998): > 100 µM (inactive)
GI50 (SN12C): > 100 µM (inactive)
GI50 (SF-295): > 100 µM (inactive)
GI50 (M19-MEL): 56 µM (inactive)
GI50 (UACC-257): > 100 µM (inactive)
GI50 (K562): 39.8 µM (inactive)
GI50 (TK-10): > 100 µM (inactive)
GI50 (HL-60): 30.2 µM (inactive)
GI50 (RXF 393): > 100 µM (inactive)
GI50 (NCI-H226): > 100 µM (inactive)
GI50 (HCT-15): > 100 µM
GI50 (OVCAR-4): 58.5 µM (inactive)
GI50 (IGROV-1): > 100 µM (inactive)
GI50 (SK-MEL-28): > 100 µM (inactive)
GI50 (ACHN): > 100 µM (inactive)
GI50 (A549): > 100 µM (inactive)
GI50 (NCI-H522): 27.8 µM (inactive)
GI50 (EKVX): > 100 µM (inactive)
GI50 (OVCAR-5): > 100 µM (inactive)
GI50 (SF-268): 98.4 µM (inactive)
GI50 (Malme-3M): > 100 µM (inactive)
GI50 (NCI-H460): > 100 µM (inactive)
GI50 (SNB-78): 49.3 µM (inactive)
GI50 (SW-620): > 100 µM (inactive)
GI50 (LOX IMVI): 50.1 µM (inactive)
GI50 (SF-539): 46.8 µM (inactive)
GI50 (LXFL 529): 77.4 µM (inactive)
GI50 (SK-MEL-5): 23.6 µM (inactive)
GI50 (HOP-62): > 100 µM (inactive)
GI50 (XF498): 25.2 µM (inactive)
GI50 (UO-31): 37.3 µM (inactive)
GI50 (SNB-75): 25.6 µM (inactive)
GI50 (UACC-62): 40.3 µM (inactive)
GI50 (U-251): 33.8 µM (inactive)
GI50 (OVCAR-3): 30.3 µM (inactive)
GI50 (HOP-18): 77.8 µM (inactive)
GI50 (SK-MEL-2): > 100 µM (inactive)
GI50 (DLD-1): 43.9 µM (inactive)
GI50 (A498): > 100 µM (inactive)
GI50 (OVCAR-8): 54.3 µM (inactive)

O=C1Cc2ccccc2N1c1c(Cl)cccc1Cl
GI50 (MOLT-4): 22.6 µM (inactive)
GI50 (CCRF-CEM): 32.9 µM (inactive)
GI50 (HT-29): 34.3 µM (inactive)
GI50 (SNB-19): 79.1 µM (inactive)
GI50 (HCT-116): 45.6 µM (inactive)
GI50 (786-0): 92.5 µM (inactive)
GI50 (M14): 71 µM (inactive)
GI50 (KM-20L2): 30.2 µM (inactive)
GI50 (NCI-H23): 52 µM (inactive)
GI50 (KM12): 31.8 µM (inactive)
GI50 (COLO 205): 42.3 µM (inactive)
GI50 (RXF 631): > 100 µM (inactive)
GI50 (SK-OV-3): 0.424 µM (active)
GI50 (CAKI-1): 61.1 µM (inactive)
GI50 (HCC 2998): 76.7 µM (inactive)
GI50 (SN12C): 89.1 µM (inactive)
GI50 (SF-295): 38.4 µM (inactive)
GI50 (M19-MEL): 40.6 µM (inactive)
GI50 (UACC-257): 39.6 µM (inactive)
GI50 (K562): 21.3 µM (inactive)
GI50 (TK-10): 98.4 µM (inactive)
GI50 (HL-60): 15.3 µM (inactive)
GI50 (HOP-92): 50.2 µM (inactive)
GI50 (NCI-H226): 37.9 µM (inactive)
GI50 (HCT-15): 46.9 µM
GI50 (OVCAR-4): 48 µM (inactive)
GI50 (IGROV-1): 43.4 µM (inactive)
GI50 (SK-MEL-28): 54 µM (inactive)
GI50 (ACHN): 70.1 µM (inactive)
GI50 (A549): 50.2 µM (inactive)
GI50 (NCI-H522): 24.6 µM (inactive)
GI50 (EKVX): 63.5 µM (inactive)
GI50 (DMS-114): 29.1 µM (inactive)
GI50 (OVCAR-5): > 100 µM (inactive)
GI50 (SF-268): 71 µM (inactive)
GI50 (Malme-3M): 56.8 µM (inactive)
GI50 (SR): 25.4 µM (inactive)
GI50 (NCI-H460): 97.5 µM (inactive)
GI50 (SNB-78): 74.5 µM (inactive)
GI50 (SW-620): 38.6 µM (inactive)
GI50 (LOX IMVI): 49.5 µM (inactive)
GI50 (SF-539): 81.3 µM (inactive)
GI50 (LXFL 529): 87.7 µM (inactive)
GI50 (SK-MEL-5): 32.8 µM (inactive)
GI50 (HOP-62): > 100 µM (inactive)
GI50 (XF498): 21.6 µM (inactive)
GI50 (UO-31): 24.3 µM (inactive)
GI50 (SNB-75): 27.7 µM (inactive)
GI50 (UACC-62): 40.2 µM (inactive)
GI50 (U-251): 63.7 µM (inactive)
GI50 (OVCAR-3): 57.1 µM (inactive)
GI50 (HOP-18): > 100 µM (inactive)
GI50 (SK-MEL-2): 28.5 µM (inactive)
GI50 (RPMI-8226): 19.6 µM (inactive)
GI50 (DLD-1): 47.9 µM (inactive)
GI50 (A498): 50.8 µM (inactive)
GI50 (OVCAR-8): 93.3 µM (inactive)
